Measured values taken from ChEMBL document CHEMBL1201862, “PubChem BioAssay data set” (2004).
The source made the active and inactive calls.

Columns and labels:
[1] = biological target: T1, Ubiquitin-conjugating enzyme E2 N (Homo sapiens, UniProt P61088); type: functional
T1 sequence (P61088 whole entry): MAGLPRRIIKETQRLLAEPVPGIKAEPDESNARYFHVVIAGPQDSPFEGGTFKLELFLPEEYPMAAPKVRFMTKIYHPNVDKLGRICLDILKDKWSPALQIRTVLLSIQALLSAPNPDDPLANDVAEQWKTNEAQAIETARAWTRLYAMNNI

[2] = biological target: T1, Ubiquitin-conjugating enzyme E2 N; type: functional; remark: listed apart in the source
Bcl-2-related protein A1 [3] = biological target: T2, Bcl-2-related protein A1 (Mus musculus, UniProt Q07440); type: functional;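 further: confirmatory dose–response counterscreen on Bfl-1, used to check hits from a UBC13 polyubiquitin inhibitor campaign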
T2 sequence (Q07440 whole entry): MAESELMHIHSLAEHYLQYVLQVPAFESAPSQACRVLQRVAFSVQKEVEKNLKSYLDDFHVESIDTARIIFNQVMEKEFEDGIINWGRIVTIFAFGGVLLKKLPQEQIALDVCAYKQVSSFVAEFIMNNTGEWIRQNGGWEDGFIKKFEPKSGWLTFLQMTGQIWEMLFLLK

[4] = system: Streptococcus sp. 'group A'; experiment: Streptococcus pyogenes SK(-)GAS viability under kanamycin – luminescence, BacTiterGlo, confirmation, counter-screen for streptokinase expression inhibitor project, dose response (AID 1900); type: functional, organism-based
Streptokinase A = biological target: T3, Streptokinase A (Streptococcus pyogenes serotype M1, UniProt P10520); experiment: viability-normalized secreted streptokinase activity reduction – plasminogen activation absorbance, OD405, dose response (AID 1914); type: functional, Streptococcus pyogenes M1 GAS;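 further: secreted streptokinase activity via plasminogen activation per viability signal from cell pellet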
T3 sequence (P10520 whole entry): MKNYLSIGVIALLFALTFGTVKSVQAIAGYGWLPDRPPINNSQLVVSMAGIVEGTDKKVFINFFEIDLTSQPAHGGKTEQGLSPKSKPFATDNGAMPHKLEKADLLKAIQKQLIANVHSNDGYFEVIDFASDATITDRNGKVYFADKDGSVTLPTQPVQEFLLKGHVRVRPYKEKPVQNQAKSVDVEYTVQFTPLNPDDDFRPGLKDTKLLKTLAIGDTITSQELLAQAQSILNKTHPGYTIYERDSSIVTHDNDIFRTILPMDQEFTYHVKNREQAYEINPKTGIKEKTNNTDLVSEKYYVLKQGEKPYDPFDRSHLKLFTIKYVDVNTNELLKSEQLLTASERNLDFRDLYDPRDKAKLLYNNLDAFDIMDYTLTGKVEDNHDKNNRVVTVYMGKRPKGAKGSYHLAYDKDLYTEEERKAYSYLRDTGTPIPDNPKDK

Streptococcus = experiment: GAS UMAA2166 growth inhibition – luminescence, BacTiterGlo, counter-screen for streptokinase expression inhibitor project, dose response (AID 1915); type: functional, organism-based;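 further: potency for reduction of bacterial viability or growth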
[5] = biological target: Glyceraldehyde-3-phosphate dehydrogenase (Homo sapiens, UniProt P04406)
Chain of Glyceraldehyde-3-phosphate dehydrogenase (P04406 whole entry): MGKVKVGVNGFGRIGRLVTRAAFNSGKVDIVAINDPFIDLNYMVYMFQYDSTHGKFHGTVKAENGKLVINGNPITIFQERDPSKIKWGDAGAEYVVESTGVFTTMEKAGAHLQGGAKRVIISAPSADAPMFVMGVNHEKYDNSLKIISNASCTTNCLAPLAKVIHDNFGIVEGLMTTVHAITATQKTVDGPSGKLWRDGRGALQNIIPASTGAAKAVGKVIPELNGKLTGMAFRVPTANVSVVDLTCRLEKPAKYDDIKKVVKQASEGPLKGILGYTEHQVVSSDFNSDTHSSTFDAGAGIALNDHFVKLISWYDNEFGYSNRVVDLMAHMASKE

Bcl-2-related protein A1 [6] = biological target: T2, Bcl-2-related protein A1; experiment: small-molecule antagonists of Bfl-1/BH3 interaction – biochemical, TR-FRET, mouse Bfl-1, confirmation (AID 621);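 further: TR-FRET binding of GST-Bfl-1 to FITC-labelled Bid peptide via terbium antibody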
Bcl-2-related protein A1 [7] = biological target: T2, Bcl-2-related protein A1; experiment: Bfl-1 binding inhibitors, SAR follow-up, biochemical, fluorescence polarization (AID 1070)
[8] = biological target: T4, Nucleotide-binding oligomerization domain-containing protein 1 (Homo sapiens, UniProt Q9Y239); experiment: SAR analysis of compounds that inhibit NOD1 - Set 3. [Related pubchem assays (depositor defined):AID1566, AID1575, AID1578, AID1849, AID1852, AID2333, AID2335, AID2466]; type: functional
T4 sequence (Q9Y239 whole entry): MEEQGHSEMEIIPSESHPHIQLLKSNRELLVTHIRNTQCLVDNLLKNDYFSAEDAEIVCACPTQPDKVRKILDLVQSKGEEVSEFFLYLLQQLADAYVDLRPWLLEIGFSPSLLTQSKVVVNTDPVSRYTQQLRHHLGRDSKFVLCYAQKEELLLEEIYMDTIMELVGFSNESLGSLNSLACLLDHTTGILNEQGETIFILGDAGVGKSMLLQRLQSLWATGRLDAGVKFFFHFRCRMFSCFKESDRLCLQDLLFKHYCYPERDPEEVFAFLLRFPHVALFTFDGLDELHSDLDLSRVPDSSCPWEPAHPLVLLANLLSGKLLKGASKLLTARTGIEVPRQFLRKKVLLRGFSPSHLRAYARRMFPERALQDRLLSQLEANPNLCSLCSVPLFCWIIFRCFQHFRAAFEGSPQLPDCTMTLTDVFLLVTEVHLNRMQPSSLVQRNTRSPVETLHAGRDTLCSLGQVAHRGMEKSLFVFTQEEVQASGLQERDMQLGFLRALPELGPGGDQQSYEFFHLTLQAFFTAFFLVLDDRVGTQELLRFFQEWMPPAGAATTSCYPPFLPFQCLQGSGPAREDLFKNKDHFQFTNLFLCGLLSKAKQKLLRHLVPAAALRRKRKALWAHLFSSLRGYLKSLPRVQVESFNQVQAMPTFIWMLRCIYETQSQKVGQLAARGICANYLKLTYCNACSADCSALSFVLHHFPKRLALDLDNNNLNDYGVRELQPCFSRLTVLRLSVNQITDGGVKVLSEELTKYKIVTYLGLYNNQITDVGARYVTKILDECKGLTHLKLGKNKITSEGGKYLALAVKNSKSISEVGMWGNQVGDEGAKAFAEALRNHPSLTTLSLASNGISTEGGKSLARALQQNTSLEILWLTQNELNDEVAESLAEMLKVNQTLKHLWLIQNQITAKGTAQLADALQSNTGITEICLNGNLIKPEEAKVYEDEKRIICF

Tumor necrosis factor = Tumor necrosis factor (Homo sapiens, UniProt P01375); experiment: analog potency on TNFa NF-kB signaling – cell-based, set 3, SAR follow-up (AID 2801); type: functional
Chain of Tumor necrosis factor (P01375 whole entry): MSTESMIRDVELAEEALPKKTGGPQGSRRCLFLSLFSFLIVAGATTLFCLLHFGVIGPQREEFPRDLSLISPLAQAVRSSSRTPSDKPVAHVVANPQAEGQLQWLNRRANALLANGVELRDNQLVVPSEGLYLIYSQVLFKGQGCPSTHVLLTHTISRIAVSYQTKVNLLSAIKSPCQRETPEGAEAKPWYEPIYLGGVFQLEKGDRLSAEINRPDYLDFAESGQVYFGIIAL

HEK293 = experiment: SAR analysis of compounds that are cytotoxic to HEK293 - Set 3. [Related pubchem assays (depositor defined):AID1575, AID1578, AID1848, AID1849, AID2001, AID2333, AID2334, AID2335, AID2337, AID2469]; type: functional, cell-based; conditions: Homo sapiens
[9] = biological target: Nucleotide-binding oligomerization domain-containing protein 2 (Homo sapiens, UniProt Q9HC29); experiment: inhibition of MDP-driven NOD2 NF-kB reporter – cell-based, set 3, SAR follow-up (AID 2799); type: functional
Chain of Nucleotide-binding oligomerization domain-containing protein 2 (Q9HC29 whole entry, the tested form may be a part): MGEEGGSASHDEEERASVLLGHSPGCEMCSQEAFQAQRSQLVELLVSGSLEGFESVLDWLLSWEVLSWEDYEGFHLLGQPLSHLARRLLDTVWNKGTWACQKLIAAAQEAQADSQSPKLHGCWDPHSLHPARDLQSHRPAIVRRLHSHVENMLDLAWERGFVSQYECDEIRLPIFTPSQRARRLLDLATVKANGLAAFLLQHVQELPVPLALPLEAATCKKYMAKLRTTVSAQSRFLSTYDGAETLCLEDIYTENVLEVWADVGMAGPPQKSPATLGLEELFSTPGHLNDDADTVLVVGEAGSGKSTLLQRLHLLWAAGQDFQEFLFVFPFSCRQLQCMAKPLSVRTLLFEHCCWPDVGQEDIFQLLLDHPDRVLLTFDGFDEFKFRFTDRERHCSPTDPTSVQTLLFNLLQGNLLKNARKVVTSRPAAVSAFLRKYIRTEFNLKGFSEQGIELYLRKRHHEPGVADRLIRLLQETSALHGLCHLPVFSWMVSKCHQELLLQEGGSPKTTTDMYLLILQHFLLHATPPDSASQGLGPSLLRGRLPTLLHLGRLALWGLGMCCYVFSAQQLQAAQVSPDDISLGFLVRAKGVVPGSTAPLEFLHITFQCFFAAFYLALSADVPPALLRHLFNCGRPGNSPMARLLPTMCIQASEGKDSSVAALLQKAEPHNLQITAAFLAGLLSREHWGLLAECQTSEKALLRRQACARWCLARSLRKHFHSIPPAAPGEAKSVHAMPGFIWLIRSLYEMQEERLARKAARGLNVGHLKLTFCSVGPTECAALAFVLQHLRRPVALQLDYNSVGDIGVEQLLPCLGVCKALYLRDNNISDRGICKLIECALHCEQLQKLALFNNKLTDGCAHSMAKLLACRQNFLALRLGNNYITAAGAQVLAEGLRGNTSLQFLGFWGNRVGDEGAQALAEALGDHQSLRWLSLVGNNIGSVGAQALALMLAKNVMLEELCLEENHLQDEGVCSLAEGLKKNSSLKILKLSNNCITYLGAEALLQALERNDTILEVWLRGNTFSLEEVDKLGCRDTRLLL

[10] = viability of HCT116 lacking mutant beta-catenin – cell-based, human colon tumor, dose response (AID 1045); type: functional;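 further: HCT116 colon tumor cells with beta catenin knocked out; cells exposed to compound for 60 hours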
[11] = biological target: T5, Dual specificity protein phosphatase 3 (Homo sapiens, UniProt P51452); experiment: VHR1 phosphatase inhibitors, biochemical (AID 1878)
T5 sequence (P51452 whole entry): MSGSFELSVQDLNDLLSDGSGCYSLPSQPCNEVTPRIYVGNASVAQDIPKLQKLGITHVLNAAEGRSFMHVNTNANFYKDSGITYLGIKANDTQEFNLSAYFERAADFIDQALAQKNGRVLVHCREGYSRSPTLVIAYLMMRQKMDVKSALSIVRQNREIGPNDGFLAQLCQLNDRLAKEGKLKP

[12] = viability of PTEN-deleted HCT116 cells – cell-based, HCT116 PTEN knockout, dose response (AID 1047); type: functional;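 further: HCT116 colon tumor cells with PTEN knocked out; cells exposed to compound for 60 hours before readout; potency for loss of cell viability measured by luminescence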
[13] = biological target: T6, Dual specificity protein phosphatase 6 (Rattus norvegicus, UniProt Q64346); experiment: inhibition of rat DUSP6 enzyme activity – biochemical, in vitro, primary screen (AID 425)
T6 sequence (Q64346 whole entry): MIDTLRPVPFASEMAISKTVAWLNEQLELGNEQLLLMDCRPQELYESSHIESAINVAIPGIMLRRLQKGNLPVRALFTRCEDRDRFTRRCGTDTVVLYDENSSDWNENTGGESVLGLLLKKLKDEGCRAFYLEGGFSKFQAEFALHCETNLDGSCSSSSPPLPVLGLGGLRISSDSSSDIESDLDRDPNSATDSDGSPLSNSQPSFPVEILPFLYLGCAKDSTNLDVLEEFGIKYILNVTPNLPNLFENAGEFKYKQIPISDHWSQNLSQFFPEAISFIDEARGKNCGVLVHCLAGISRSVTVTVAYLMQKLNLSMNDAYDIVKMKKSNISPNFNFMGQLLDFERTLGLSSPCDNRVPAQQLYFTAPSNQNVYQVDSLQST

[14] = biological target: T5, Dual specificity protein phosphatase 3; experiment: VHR1 phosphatase inhibitors, primary screen, biochemical, absorbance, uHTS (AID 1654)
[15] = biological target: T7, Low molecular weight phosphotyrosine protein phosphatase (Homo sapiens, UniProt P24666); type: functional; conditions: read-out: IC50_Mean
T7 sequence (P24666 whole entry): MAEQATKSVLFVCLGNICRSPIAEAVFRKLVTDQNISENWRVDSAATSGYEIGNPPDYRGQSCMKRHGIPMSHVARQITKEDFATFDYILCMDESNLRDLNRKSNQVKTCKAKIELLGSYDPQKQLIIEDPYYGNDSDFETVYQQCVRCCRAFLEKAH

[16] = biological target: Tyrosine-protein phosphatase non-receptor type 11 (Homo sapiens, UniProt Q06124); experiment: PTPN11 enzyme inhibitors – biochemical, selectivity assay for STEP inhibitor project, dose response (AID 602367); type: functional; conditions: read-out: IC50_Mean
[17] = biological target: Tyrosine-protein phosphatase non-receptor type 5 (Homo sapiens, UniProt P54829); experiment: PTPN5 enzyme inhibition – biochemical, fluorescence intensity, uHTS hits, confirmation (AID 602372); type: functional; conditions: read-out: IC50_Mean
[18] = biological target: T7, Low molecular weight phosphotyrosine protein phosphatase; type: functional; conditions: read-out: IC50_Mean; remark: listed apart in the source
[19] = biological target: T5, Dual specificity protein phosphatase 3; experiment: VHR phosphatase inhibition, dose response, selectivity assay for STEP inhibitor project, biochemical (AID 602374); type: functional; conditions: read-out: IC50_Mean
[20] = biological target: T8, Tyrosine-protein phosphatase non-receptor type 22 (Homo sapiens, UniProt Q9Y2R2); type: functional
T8 sequence (Q9Y2R2 whole entry): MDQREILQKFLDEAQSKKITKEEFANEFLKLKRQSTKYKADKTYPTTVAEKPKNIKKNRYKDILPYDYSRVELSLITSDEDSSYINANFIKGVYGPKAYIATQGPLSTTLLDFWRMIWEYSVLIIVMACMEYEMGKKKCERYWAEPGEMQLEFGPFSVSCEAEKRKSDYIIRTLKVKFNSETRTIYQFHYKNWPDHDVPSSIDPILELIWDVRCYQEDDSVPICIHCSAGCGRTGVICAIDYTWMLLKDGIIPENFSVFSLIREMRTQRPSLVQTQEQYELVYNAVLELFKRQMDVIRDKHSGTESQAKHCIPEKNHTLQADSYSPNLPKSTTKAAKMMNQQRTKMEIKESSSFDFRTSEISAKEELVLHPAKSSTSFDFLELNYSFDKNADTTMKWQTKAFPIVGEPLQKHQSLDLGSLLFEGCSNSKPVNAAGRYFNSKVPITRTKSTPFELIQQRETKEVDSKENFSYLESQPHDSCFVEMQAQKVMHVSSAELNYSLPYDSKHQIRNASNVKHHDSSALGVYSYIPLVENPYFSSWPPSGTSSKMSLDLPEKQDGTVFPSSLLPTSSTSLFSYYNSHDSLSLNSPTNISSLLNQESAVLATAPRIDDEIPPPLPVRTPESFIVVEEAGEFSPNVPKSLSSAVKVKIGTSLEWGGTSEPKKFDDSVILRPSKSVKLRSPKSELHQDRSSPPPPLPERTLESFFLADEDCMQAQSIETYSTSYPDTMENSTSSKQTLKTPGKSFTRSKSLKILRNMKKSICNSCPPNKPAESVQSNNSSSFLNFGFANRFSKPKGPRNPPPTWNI

[21] = biological target: T9, Tyrosine-protein phosphatase non-receptor type 7 (Homo sapiens, UniProt P35236); type: functional
T9 sequence (P35236 whole entry): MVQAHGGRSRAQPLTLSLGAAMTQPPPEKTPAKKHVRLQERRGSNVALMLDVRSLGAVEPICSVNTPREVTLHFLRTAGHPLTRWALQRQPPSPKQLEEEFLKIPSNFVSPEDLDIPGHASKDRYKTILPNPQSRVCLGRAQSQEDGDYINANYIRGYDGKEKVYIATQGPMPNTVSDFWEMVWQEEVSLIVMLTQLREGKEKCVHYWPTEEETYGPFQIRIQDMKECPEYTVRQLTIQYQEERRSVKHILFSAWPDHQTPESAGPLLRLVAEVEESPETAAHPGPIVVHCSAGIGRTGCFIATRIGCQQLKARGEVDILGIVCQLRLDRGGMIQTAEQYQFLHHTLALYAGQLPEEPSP

[22] = biological target: T8, Tyrosine-protein phosphatase non-receptor type 22; type: functional; remark: listed apart in the source
[23] = biological target: Signal transducer and activator of transcription 1-alpha/beta (Homo sapiens, UniProt P42224); experiment: STAT3 blockade with qPCR and toxicity readouts – cell-based, STAT1 panel, cytotoxicity, late-stage follow-up, panel member STAT1 Inhibition (AID 2078)
Chain of Signal transducer and activator of transcription 1-alpha/beta (P42224 whole entry): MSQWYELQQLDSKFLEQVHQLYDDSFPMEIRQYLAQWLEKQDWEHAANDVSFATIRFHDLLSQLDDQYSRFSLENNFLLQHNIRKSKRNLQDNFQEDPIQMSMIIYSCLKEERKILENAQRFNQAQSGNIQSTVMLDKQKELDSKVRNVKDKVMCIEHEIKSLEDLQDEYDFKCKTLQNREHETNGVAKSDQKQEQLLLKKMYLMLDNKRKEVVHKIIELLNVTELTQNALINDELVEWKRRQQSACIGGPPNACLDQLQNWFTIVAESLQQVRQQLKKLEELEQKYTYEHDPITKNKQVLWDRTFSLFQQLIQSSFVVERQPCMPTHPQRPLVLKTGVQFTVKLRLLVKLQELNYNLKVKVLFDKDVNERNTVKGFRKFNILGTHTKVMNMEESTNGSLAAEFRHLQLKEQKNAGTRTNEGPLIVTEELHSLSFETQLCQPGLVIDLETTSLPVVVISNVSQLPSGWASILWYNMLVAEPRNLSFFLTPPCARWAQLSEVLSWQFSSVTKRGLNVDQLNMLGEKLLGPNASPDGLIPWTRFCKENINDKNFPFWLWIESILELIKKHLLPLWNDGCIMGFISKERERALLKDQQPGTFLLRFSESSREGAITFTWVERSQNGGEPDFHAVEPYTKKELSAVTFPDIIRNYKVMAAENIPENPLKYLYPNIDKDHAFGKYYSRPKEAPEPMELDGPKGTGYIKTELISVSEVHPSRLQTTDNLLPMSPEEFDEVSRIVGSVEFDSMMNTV

[24] = biological target: Signal transducer and activator of transcription 3 (Homo sapiens, UniProt P40763); experiment: STAT3 blockade with qPCR and toxicity readouts – cell-based, STAT1 panel, cytotoxicity, late-stage follow-up, panel member STAT3 Inhibition (AID 2078)
[25] = biological target: Voltage-dependent T-type calcium channel subunit alpha-1H (Homo sapiens, UniProt O95180); experiment: inhibition of CACNA1H calcium flux – cell-based, SynthLib3 library, HEK293 Cav3.2, fluorescence (AID 493041); type: functional
Chain of Voltage-dependent T-type calcium channel subunit alpha-1H (O95180 whole entry): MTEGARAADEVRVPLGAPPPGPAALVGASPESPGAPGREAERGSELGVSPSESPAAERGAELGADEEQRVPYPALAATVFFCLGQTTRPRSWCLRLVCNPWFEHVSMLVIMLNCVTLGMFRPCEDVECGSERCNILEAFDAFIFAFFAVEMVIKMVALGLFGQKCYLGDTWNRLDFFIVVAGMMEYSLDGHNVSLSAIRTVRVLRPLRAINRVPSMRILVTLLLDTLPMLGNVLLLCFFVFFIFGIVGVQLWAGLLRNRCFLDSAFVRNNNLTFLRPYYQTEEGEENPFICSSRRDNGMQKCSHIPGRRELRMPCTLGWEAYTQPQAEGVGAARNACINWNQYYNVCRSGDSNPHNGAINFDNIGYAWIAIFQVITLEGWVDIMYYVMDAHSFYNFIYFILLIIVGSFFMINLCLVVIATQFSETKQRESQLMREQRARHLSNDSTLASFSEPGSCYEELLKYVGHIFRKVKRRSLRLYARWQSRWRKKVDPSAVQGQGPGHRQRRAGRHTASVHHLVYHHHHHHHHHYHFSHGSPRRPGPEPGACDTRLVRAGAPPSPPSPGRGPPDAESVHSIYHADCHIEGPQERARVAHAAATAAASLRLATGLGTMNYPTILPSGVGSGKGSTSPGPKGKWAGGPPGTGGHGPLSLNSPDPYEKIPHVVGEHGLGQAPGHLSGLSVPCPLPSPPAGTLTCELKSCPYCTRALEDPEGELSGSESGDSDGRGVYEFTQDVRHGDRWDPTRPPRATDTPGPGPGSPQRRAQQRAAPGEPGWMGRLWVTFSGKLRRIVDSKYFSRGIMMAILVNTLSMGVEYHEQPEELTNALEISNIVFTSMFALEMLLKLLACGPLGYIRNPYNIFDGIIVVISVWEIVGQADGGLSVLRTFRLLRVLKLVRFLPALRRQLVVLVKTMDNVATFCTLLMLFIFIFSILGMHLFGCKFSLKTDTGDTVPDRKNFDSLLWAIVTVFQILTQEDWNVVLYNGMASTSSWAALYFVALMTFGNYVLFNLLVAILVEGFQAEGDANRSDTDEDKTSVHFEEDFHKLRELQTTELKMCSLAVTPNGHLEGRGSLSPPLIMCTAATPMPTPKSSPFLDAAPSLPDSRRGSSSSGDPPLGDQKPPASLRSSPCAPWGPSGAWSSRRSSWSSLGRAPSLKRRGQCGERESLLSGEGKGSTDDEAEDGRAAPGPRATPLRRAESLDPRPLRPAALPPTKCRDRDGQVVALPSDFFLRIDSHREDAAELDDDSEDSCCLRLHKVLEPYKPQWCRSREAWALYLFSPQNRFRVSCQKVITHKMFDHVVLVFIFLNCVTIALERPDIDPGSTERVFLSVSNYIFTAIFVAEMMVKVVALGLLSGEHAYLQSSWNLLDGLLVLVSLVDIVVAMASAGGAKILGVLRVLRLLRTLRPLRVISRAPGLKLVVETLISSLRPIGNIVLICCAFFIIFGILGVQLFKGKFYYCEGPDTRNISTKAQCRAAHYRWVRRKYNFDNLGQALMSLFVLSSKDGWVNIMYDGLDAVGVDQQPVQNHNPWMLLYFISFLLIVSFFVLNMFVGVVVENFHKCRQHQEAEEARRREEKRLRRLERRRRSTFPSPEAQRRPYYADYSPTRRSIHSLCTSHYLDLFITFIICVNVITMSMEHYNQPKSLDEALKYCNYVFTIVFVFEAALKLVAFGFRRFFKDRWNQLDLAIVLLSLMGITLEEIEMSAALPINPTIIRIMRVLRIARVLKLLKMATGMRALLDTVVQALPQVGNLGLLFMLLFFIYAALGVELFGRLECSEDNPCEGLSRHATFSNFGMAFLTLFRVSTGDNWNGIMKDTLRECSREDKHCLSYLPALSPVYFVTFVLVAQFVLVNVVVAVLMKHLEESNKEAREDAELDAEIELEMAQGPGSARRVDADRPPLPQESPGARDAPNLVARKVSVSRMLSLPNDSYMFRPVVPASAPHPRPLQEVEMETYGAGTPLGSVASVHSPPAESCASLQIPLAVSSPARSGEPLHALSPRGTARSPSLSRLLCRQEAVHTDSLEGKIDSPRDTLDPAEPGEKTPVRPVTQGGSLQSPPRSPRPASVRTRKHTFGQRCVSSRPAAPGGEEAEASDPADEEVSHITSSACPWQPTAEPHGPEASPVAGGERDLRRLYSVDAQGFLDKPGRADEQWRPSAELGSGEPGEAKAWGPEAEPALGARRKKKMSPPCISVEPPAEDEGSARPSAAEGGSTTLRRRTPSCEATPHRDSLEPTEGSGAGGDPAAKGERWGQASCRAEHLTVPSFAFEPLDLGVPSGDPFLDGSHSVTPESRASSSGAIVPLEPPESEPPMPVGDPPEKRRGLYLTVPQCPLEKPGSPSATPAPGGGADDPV

## COc1ccc(OCC(=O)NNC(=S)NC(=O)C2CC2)cc1
[1]
  IC50: 14.8 µM (active)
[2]
  IC50: 6.63 µM (active)
Bcl-2-related protein A1 [3]
  IC50: > 20 µM (inactive)
[4]
  EC50: 7.37 µM (active)
Streptokinase A
  EC50: > 150 µM (not active)
Streptococcus
  EC50: 23.3 µM (active)

## COc1ccc(-c2cc(N)n(S(=O)(=O)c3ccc(C(C)(C)C)cc3)n2)cc1OC
[5]
  IC50: > 100 µM (not active)
Bcl-2-related protein A1 [6]
  IC50: > 100 µM (not active)
Bcl-2-related protein A1 [7]
  IC50: > 100 µM (not active)
[8]
  IC50: > 20 µM (inactive)
Tumor necrosis factor
  IC50: > 20 µM (inactive)
HEK293
  IC50: > 20 µM (inactive)
[9]
  IC50: > 20 µM (inactive)

## Cc1ccc(-c2nc(NC(=O)CSc3cc(C)c4ccccc4n3)ns2)cc1
[10]
  EC50: 17.9 µM (active)
[11]
  IC50: 8.86 µM (active)
[12]
  EC50: 29.1 µM (active)
[13]
  IC50: 24.3 µM (active)
[14]
  IC50: 27.3 µM (active)
[15]
  IC50: 9.06 µM (active)
[16]
  IC50: 0.77 µM (active)
[17]
  IC50: 3.06 µM (active)
[18]
  IC50: 11.7 µM (active)
[19]
  IC50: 1.31 µM (active)

## O=C(C[S+]([O-])CC(=O)Nc1ccc(Cl)cc1)NCC1OCCc2ccccc21 (centres undefined)
[20]
  IC50: > 79.4 µM (inactive)
[21]
  IC50: > 79.4 µM (inactive)
[22]
  IC50: > 79.4 µM (inactive)

## COc1ccc(CN2CCN(c3ncnc4sc5c(c34)CCCCC5)CC2)cc1
[23]
  IC50: > 55.7 µM (inactive)
[24]
  IC50: > 18.6 µM (inactive)

## CCC(CC)CN1CC2CCC(NC(=O)c3cc(Cl)cc(Cl)c3)C2C1 (centres undefined)
[25]
  EC50: 2.4 µM (active)
